# Measured values as given in patent US9376449B2, “Indole carboxamide derivative” (Astellas Pharma Inc., priority 2012, dated 2016).
# Tests used:
# isolated urethra = assay: Test confirming that urethra contractile action by ramelteon is through MT1 and/or MT2 receptor (Luzindole); parameters: species or system rat; settings: ramelteon 1 μM; solvent added instead of Luzindole; first contraction by ramelteon as 100%
# Description: (2) Test for Confirming that Urethra Contractile Action is Action Through MT1 and/or MT2 Receptor
# The urethra was isolated from an SD female rat having a body weight of 100 to 500 g. The isolated urethra was incised longitudinally to give a rectangular strip specimen having a width of about 3 mm, which was suspended in the muscle parallel to the circular to 10 mL of a tissue bath filled with a Krebs-Henseleit solution (pH 7.4). […] The resting tension was set to 0.5 g to record the isometric contraction. After the resting tension was stabilized, contraction was elicited by the addition of 10 μM phenylephrine. After washing and stabilizing, the test compound (ramelteon) at 1 μM was added to measure a contractile response. After washing and stabilizing, a solvent or Luzindole (purchased from Wako Pure Chemical Industries, Ltd.) (0.1 μM, 1 μM, or 10 μM) was added to the same specimen, and after 20 minutes, ramelteon at 1 μM was added again thereto to measure a contractile reaction. When the first contraction by ramelteon at 1 μM was taken as 100%, the second contractile rate by ramelteon was measured.
melting point [°C],SMILES,Second contractile rate by ramelteon (%) (isolated urethra)
212 to 215,"CNC(=O)c1[nH]c2ccc(OC)cc2c1CCNC(=O)C(F)F [Ex 2, 3-{2-[(difluoroacetyl)amino]ethyl}-5-methoxy-N-methyl-1H-indole-2-carboxamide]",
,"CCC(=O)NCC[C@@H]1CCc2ccc3c(c21)CCO3 [Ramelteon, reference compound]",98 ± 10
